How the values were obtained:
[1] = biological target: T1, PTPN2 (i.e., TC-PTP) (Homo sapiens, UniProt P17706); assay: Phosphatase activity assay (DiFMUP substrate), PTPN2; type: biochemical; conditions: compounds binned ≤1 uM or >1 uM
T1 sequence (P17706 1-415): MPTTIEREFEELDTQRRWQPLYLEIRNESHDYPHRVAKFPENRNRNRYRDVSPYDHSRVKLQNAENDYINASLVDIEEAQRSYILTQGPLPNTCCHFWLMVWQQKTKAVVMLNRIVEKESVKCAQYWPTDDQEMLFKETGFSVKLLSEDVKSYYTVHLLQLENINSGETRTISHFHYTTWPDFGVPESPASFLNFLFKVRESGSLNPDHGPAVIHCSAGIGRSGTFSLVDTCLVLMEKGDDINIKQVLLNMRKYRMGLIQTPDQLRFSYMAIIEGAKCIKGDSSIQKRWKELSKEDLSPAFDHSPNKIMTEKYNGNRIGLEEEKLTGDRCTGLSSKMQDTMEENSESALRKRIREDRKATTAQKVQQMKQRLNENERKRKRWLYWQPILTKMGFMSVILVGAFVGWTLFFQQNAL
Method in brief: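 Using a Km-level DiFMUP substrate and 0.025 ng/ul PTPN2, phosphatase activity is tracked by DiFMU emission at 450 nm over about 15–30 minutes. Initial rates at ten inhibitor concentrations give IC50 by four-parameter fitting.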

[2] = biological target: T2, PTPN1 (i.e., PTP1B) (Homo sapiens, UniProt P18031); assay: Phosphatase activity assay (DiFMUP substrate), PTP1B; type: biochemical; conditions: compounds binned ≤1 uM or >1 uM
T2 sequence (P18031 1-435): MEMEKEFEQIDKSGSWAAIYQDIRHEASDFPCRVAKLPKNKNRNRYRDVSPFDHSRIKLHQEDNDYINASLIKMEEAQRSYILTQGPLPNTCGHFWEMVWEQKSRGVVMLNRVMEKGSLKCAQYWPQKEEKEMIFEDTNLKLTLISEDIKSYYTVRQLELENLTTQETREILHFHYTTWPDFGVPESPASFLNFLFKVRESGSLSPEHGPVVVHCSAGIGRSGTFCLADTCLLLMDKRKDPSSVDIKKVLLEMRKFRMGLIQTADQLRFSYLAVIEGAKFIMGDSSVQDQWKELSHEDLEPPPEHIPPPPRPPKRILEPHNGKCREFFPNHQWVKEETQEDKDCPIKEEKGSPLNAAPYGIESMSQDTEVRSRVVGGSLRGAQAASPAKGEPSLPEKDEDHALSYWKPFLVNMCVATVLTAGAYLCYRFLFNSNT
Method in brief: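 Enzyme (e.g. PTPN2 0.025 ng/ul) mixed about 2 min with compound at 10 serial concentrations in 50 mM HEPES pH 7.5, 150 mM NaCl, 0.5 mM EDTA, 1 mM DTT, 0.001% Tween-20 at room temperature. DiFMUP added at each enzyme's Km (about 45 μM for PTPN2). DiFMU fluorescence (ex 360/em 450 nm) followed 15-30 min; IC50 from 4-parameter fit of rates.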

Compound	IC50 [1] [nM]	IC50 [2] [nM]
O=C1CN(c2c(O)ccc(-c3cnn(C(=O)NC4CC4)c3)c2F)S(=O)(=O)N1 [Compound 514, N-cyclopropyl-4-(3-(1,1-dioxido-4-oxo-1,2,5-thiadiazolidin-2-yl)-2-fluoro-4-hydroxyphenyl)-1H-pyrazole-1-carboxamide]	≤ 1000	≤ 1000
O=C1CN(c2c(O)ccc(C3=CC(CO)NC3)c2F)S(=O)(=O)N1 (stereo not shown) [Compound 398, 5-(2-fluoro-6-hydroxy-3-(5-(hydroxymethyl)-2,5-dihydro-1H-pyrrol-3-yl)phenyl)-1,2,5-thiadiazolidin-3-one 1,1-dioxide]	≤ 1000	≤ 1000
CS(=O)(=O)Nc1ccc(-c2ccc(O)c(N3CC(=O)NS3(=O)=O)c2F)cc1 [Compound 236, N-(3′-(1,1-dioxido-4-oxo-1,2,5-thiadiazolidin-2-yl)-2′-fluoro-4′-hydroxy-[1,1′-biphenyl]-4-yl)methanesulfonamide]	≤ 1000	≤ 1000
O=C1CN(c2c(O)ccc(-c3cnn(CC4CC5CCC(C4)N5C(=O)C4CC4)c3)c2F)S(=O)(=O)N1 (stereo not shown) [Compound 295, 5-(3-(1-((8-(cyclopropanecarbonyl)-8-azabicyclo[3.2.1]octan-3-yl)methyl)-1H-pyrazol-4-yl)-2-fluoro-6-hydroxyphenyl)-1,2,5-thiadiazolidin-3-one 1,1-dioxide]	≤ 1000	≤ 1000
O=C1CN(c2c(O)ccc(-c3cn(C4CCOCC4)cn3)c2F)S(=O)(=O)N1 [Compound 328, 5-(2-fluoro-6-hydroxy-3-(1-(tetrahydro-2H-pyran-4-yl)-1H-imidazol-4-yl)phenyl)-1,2,5-thiadiazolidin-3-one 1,1-dioxide]	≤ 1000	≤ 1000
N#Cc1ccc(-c2ccc(O)c(N3CC(=O)NS3(=O)=O)c2F)cn1 [Compound 144, 5-(3-(1,1-dioxido-4-oxo-1,2,5-thiadiazolidin-2-yl)-2-fluoro-4-hydroxyphenyl)picolinonitrile]	≤ 1000	≤ 1000
O=C1CN(c2c(O)ccc(-c3cnn(Cc4cccc(C(F)(F)F)c4)c3)c2F)S(=O)(=O)N1 [Compound 159, 5-(2-fluoro-6-hydroxy-3-(1-(3-(trifluoromethyl)benzyl)-1H-pyrazol-4-yl)phenyl)-1,2,5-thiadiazolidin-3-one 1,1-dioxide]	≤ 1000	≤ 1000
Cn1ccc(-c2ccc(O)c(N3CC(=O)NS3(=O)=O)c2F)c1 [Compound 185, 5-(2-fluoro-6-hydroxy-3-(1-methyl-1H-pyrrol-3-yl)phenyl)-1,2,5-thiadiazolidin-3-one 1,1-dioxide]	≤ 1000	≤ 1000
O=C1CN(c2c(O)ccc(-c3cc(CCCC4CC4)n[nH]3)c2F)S(=O)(=O)N1 [Compound 464, 5-(3-(3-(3-cyclopropylpropyl)-1H-pyrazol-5-yl)-2-fluoro-6-hydroxyphenyl)-1,2,5-thiadiazolidin-3-one 1,1-dioxide]	≤ 1000	≤ 1000
N#CCn1cc(-c2ccc(O)c(N3CC(=O)NS3(=O)=O)c2F)cn1 [Compound 130, 2-(4-(3-(1,1-dioxido-4-oxo-1,2,5-thiadiazolidin-2-yl)-2-fluoro-4-hydroxyphenyl)-1H-pyrazol-1-yl)acetonitrile]	≤ 1000	≤ 1000
O=C1CN(c2c(O)ccc(-c3ccc(OCc4ccccc4)nc3)c2F)S(=O)(=O)N1 [Compound 143, 5-(3-(6-(benzyloxy)pyridin-3-yl)-2-fluoro-6-hydroxyphenyl)-1,2,5-thiadiazolidin-3-one 1,1-dioxide]	≤ 1000	≤ 1000
O=C1CN(c2c(O)ccc(-c3cc(CC(F)F)n[nH]3)c2F)S(=O)(=O)N1 [Compound 524, 5-(3-(3-(2,2-difluoroethyl)-1H-pyrazol-5-yl)-2-fluoro-6-hydroxyphenyl)-1,2,5-thiadiazolidin-3-one 1,1-dioxide]	≤ 1000	≤ 1000

Further lines, results first:

IC50 [1] [nM]	IC50 [2] [nM]	Compound
≤ 1000	≤ 1000	N#CC1(n2cc(-c3ccc(O)c(N4CC(=O)NS4(=O)=O)c3F)cn2)CC1 [Compound 484, 1-(4-(3-(1,1-dioxido-4-oxo-1,2,5-thiadiazolidin-2-yl)-2-fluoro-4-hydroxyphenyl)-1H-pyrazol-1-yl)cyclopropane-1-carbonitrile]
≤ 1000	≤ 1000	CC(C)CCN1CC=C(c2ccc(O)c(N3CC(=O)NS3(=O)=O)c2F)C1 [Compound 544, 5-(2-fluoro-6-hydroxy-3-(1-isopentyl-2,5-dihydro-1H-pyrrol-3-yl)phenyl)-1,2,5-thiadiazolidin-3-one 1,1-dioxide]
≤ 1000	≤ 1000	N#CC1CC1c1cc(-c2ccc(O)c(N3CC(=O)NS3(=O)=O)c2F)[nH]n1 (stereo not shown) [Compound 478, 2-(5-(3-(1,1-dioxido-4-oxo-1,2,5-thiadiazolidin-2-yl)-2-fluoro-4-hydroxyphenyl)-1H-pyrazol-3-yl)cyclopropane-1-carbonitrile]
> 1000	> 1000	CC1(C)C=C(c2ccc(O)c(N3CC(=O)NS3(=O)=O)c2F)CN1 [Compound 519, 5-(3-(5,5-dimethyl-2,5-dihydro-1H-pyrrol-3-yl)-2-fluoro-6-hydroxyphenyl)-1,2,5-thiadiazolidin-3-one 1,1-dioxide]
≤ 1000	≤ 1000	C=CCCC1C=C(c2ccc(O)c(N3CC(=O)NS3(=O)=O)c2F)CN1 (stereo not shown) [Compound 471, 5-(3-(5-(but-3-en-1-yl)-2,5-dihydro-1H-pyrrol-3-yl)-2-fluoro-6-hydroxyphenyl)-1,2,5-thiadiazolidin-3-one 1,1-dioxide]
≤ 1000	≤ 1000	O=C1CN(c2c(O)ccc(C3=CCN(CCC(F)F)C3)c2F)S(=O)(=O)N1 [Compound 534, 5-(3-(1-(3,3-difluoropropyl)-2,5-dihydro-1H-pyrrol-3-yl)-2-fluoro-6-hydroxyphenyl)-1,2,5-thiadiazolidin-3-one 1,1-dioxide]
≤ 1000	≤ 1000	Cn1nc(-c2ccc(O)c(N3CC(=O)NS3(=O)=O)c2F)cc1C1CC1(F)F (stereo not shown) [Compound 319, 5-(3-(5-(2,2-difluorocyclopropyl)-1-methyl-1H-pyrazol-3-yl)-2-fluoro-6-hydroxyphenyl)-1,2,5-thiadiazolidin-3-one 1,1-dioxide]
≤ 1000	≤ 1000	N#Cc1ccc(Cn2cc(-c3ccc(O)c(N4CC(=O)NS4(=O)=O)c3F)cn2)cc1F [Compound 157, 4-((4-(3-(1,1-dioxido-4-oxo-1,2,5-thiadiazolidin-2-yl)-2-fluoro-4-hydroxyphenyl)-1H-pyrazol-1-yl)methyl)-2-fluorobenzonitrile]
≤ 1000	≤ 1000	O=C1CN(c2c(O)ccc(-c3ccc(NS(=O)(=O)CC4CC4)cc3)c2F)S(=O)(=O)N1 [Compound 231, 1-cyclopropyl-N-(3′-(1,1-dioxido-4-oxo-1,2,5-thiadiazolidin-2-yl)-2′-fluoro-4′-hydroxy-[1,1′-biphenyl]-4-yl)methanesulfonamide]
≤ 1000	≤ 1000	COCC1C=C(c2ccc(O)c(N3CC(=O)NS3(=O)=O)c2F)CN1 (stereo not shown) [Compound 481, 5-(2-fluoro-6-hydroxy-3-(5-(methoxymethyl)-2,5-dihydro-1H-pyrrol-3-yl)phenyl)-1,2,5-thiadiazolidin-3-one 1,1-dioxide]
≤ 1000	≤ 1000	CN1CCC(n2cc(-c3ccc(O)c(N4CC(=O)NS4(=O)=O)c3F)cn2)CC1 [Compound 259, 5-(2-fluoro-6-hydroxy-3-(1-(1-methylpiperidin-4-yl)-1H-pyrazol-4-yl)phenyl)-1,2,5-thiadiazolidin-3-one 1,1-dioxide]
> 1000	≤ 1000	Cn1cc(-c2ccc(O)c(N3CC(=O)NS3(=O)=O)c2F)nc1C1CC1(F)F (stereo not shown) [Compound 472, 5-(3-(2-(2,2-difluorocyclopropyl)-1-methyl-1H-imidazol-4-yl)-2-fluoro-6-hydroxyphenyl)-1,2,5-thiadiazolidin-3-one 1,1-dioxide]
≤ 1000	≤ 1000	O=C1CN(c2c(O)ccc(-c3cn(-c4ccc(C(F)(F)F)cc4)cn3)c2F)S(=O)(=O)N1 [Compound 318, 5-(2-fluoro-6-hydroxy-3-(1-(4-(trifluoromethyl)phenyl)-1H-imidazol-4-yl)phenyl)-1,2,5-thiadiazolidin-3-one 1,1-dioxide]
≤ 1000	≤ 1000	CN(C)C1CCN(c2cc(-c3ccc(O)c(N4CC(=O)NS4(=O)=O)c3F)[nH]n2)C1 (stereo not shown) [Compound 397, 5-(3-(3-(3-(dimethylamino)pyrrolidin-1-yl)-1H-pyrazol-5-yl)-2-fluoro-6-hydroxyphenyl)-1,2,5-thiadiazolidin-3-one 1,1-dioxide]

From US20240398828A1, “HETERO-ATOM CONTAINING COMPOUNDS AND USES THEREOF” (Kumquat Biosciences Inc., priority 2021, published 2024)
